# Values quoted from earlier work as cited in US20140044784A1, “COMBINED FORMULATION WITH IMPROVED STABILITY” (BORYUNG PHARMACEUTICAL CO., LTD, priority 2011, published 2014).
# Conditions: daily administration of a low dose (about 80 mg)
structure (smiles),measurement,value
"CC(=O)Oc1ccccc1C(=O)O [aspirin, acetylsalicylic acid]","Reduction of heart attack, stroke, and cardiovascular mortalities",at least 25%
